The experiment relates to rabbit anti-cAMP sera (antigen:antibody binding). Nature of the experiment: Scintillation proximity radioimmunoassay for cAMP: standard curves with lysis reagents and sequestrants. The note with it: for [125I]cAMP bound to SPA beads, counts per minute: no sequestrant; for restoration of antigen:antibody binding by different sequestrants: 2.5% (w/v) sequestrant, standards in 1% DTAB. The protocol:
All assays were carried out in microtitre plates compatible with a microtitre plate beta scintillation counter. Standards (50 μl; 0.2-12.8 pmol/well), antisera (50 μl; at 1:11000 dilution), tracer (50 ul; 10000-20000 cpm) are added to anti-rabbit coated SPA beads (50 μl; 20 mg/ml). Non-specific binding was determined in the absence of specific rabbit antisera. SPA anti-rabbit reagent is placed onto a magnetic stirrer to ensure a homogeneous suspension before pipetting. All wells contained a total volume of 200 μl. The plates were sealed and incubated at room temperature (15-30° C.) for 15-20 hours. The amount of [^125I]cAMP bound to the SPA fluomicrospheres was determined by counting in a microtitre plate beta scintillation counter for 2 minutes.
Experiments were set up with:— • a) Working standards (4-256 pmol/ml; 0.2-12.8 pmol/well) were prepared in assay buffer (0.05M sodium acetate buffer containing 0.01% sodium azide) only (control) or assay buffer containing lysis reagent (e.g. DTAB, CPC or SDS; see experiment 1) at various concentrations. • b) Rabbit anti-cAMP sera prepared in assay buffer only (control) or assay buffer containing sequestrating agent at various concentrations depending on the experiment. • c) Radioactive tracer: adenosine 3′ 5′-cyclic phosphoric acid 2′-O-succinyl-3-[^125I] iodotyrosine methyl ester prepared in assay buffer only (control) or assay buffer containing sequestrating agent at various concentrations depending on the experiment. • d) Donkey anti-rabbit IgG coupled to scintillation proximity fluomicrospheres prepared in assay buffer only (control) or assay buffer containing sequestrating agent at various concentrations depending on the experiment. Experiment 1: Inhibition of Antigen and Antibody Binding by Several Lysis Reagents Method
In these experiments, standard curves were prepared for cAMP using the SPA immunoassay technique, described above, where working standards of cAMP were prepared in several lysis reagents at 1% (w/v) or 2% (w/v) final concentration. The detergents investigated included dodecyl trimethyl ammonium bromide (DTAB; Sigma Chemical Co. D8638), benzethonium chloride (BZC; Aldrich; B470-8), cetyl pyridinium chloride (CPC; Sigma Chemical Co; C9002), sodium dodecyl sulphate (SDS, Sigma chemical Co; L4509) and N-dodecyl-N,N-dimethyl-3-ammonio-1-propanesulphonate (DDAPS; Sigma Chemical Co.; D4516).
In these experiments, standard curves for cAMP were prepared using the SPA immunoassay technique described above, where working standards of cAMP were prepared in 1% (w/v), 1.5% (w/v) or 2% (w/v) lysis reagents (DTAB, SDS or CPC). The control consisted of no lysis reagent or cyclodextrin added. The effect including 2.5% (w/v) alpha-cyclodextrin (alpha-CD) (Sigma Chemical Co.; C4642) on antigen:antibody binding was investigated. Here, tracer, antisera and SPA beads were prepared in assay buffer containing 2.5% (w/v) alpha-CD. A second control tested the effect of 2.5% (w/v) alpha-CD on the standard curve without addition of lysis reagent.
In this experiment, standard curves for cAMP were prepared using the SPA radioimmunoassay where working standards of cAMP were prepared in 1% (w/v) DTAB. The effect of including 1% (w/v), 2% (w/v), 2.5% (w/v) and 5% (w/v) alpha-cyclodextrin on antigen:antibody binding was investigated. Here, tracer, antisera and SPA beads were prepared in assay buffer containing alpha-CD at the above concentrations. The control consisted of no lysis or cyclodextrin added to the assay.
In this experiment, standard curves for cAMP were prepared using the SPA immunoassay technique where working standards were prepared 1% (wt) lysis reagent (DTAB). The effect of including 2.5% (w/v) alpha-cyclodextrin (CD) 2.5% (w/v) beta-cyclodextrin (beta-CD) (Sigma is Chemical Co.; C4767) and 2.5% (w/v) gamma-cyclodextrin (gamma-CD) (Sigma Chemical Co.; 4892) on antigen:antibody binding was investigated. […]

[1] abbreviates: 1% lysis reagent, 6.4 pmol cAMP/well.
Where [2] appears, read: 1% lysis reagent, 12.8 pmol cAMP/well.
The mark [3] stands for this setting: 1% lysis reagent, NSB (no specific antisera).
The mark [4] stands for this setting: 1% lysis reagent, Zero standard.

The structures appear in SMILES notation. Where “and” joins values, the source holds several entries; their conditions need not be identical. Equal values may be shown once.

As to `CCCCCCCCCCCC[N+](C)(C)CCCS(=O)(=O)[O-]` [DDAPS, N-dodecyl-N,N-dimethyl-3-ammonio-1-propanesulphonate], the “[125I]cAMP bound to SPA beads, counts per minute” value (from here on “[125I]cAMP bound … per minute”) reads like this: (1% lysis reagent, 0.2 pmol cAMP/well) 969 cpm and 762 cpm; (1% lysis reagent, 0.4 pmol cAMP/well) 849 cpm and 719 cpm; (1% lysis reagent, 0.8 pmol cAMP/well) 725 cpm and 689 cpm; (1% lysis reagent, 1.6 pmol cAMP/well) 610 cpm and 559 cpm; (1% lysis reagent, 3.2 pmol cAMP/well) 425 cpm and 446 cpm; under setting [1], 311 cpm and 326 cpm. Besides, the “[125I]cAMP bound … per minute” value is 204 cpm and 173 cpm under setting [2]; 181 cpm and 137 cpm under setting [3]; 1109 cpm and 906 cpm under setting [4]; 416 cpm and 423 cpm (2% lysis reagent, 0.2 pmol cAMP/well); 426 cpm and 370 cpm (2% lysis reagent, 0.4 pmol cAMP/well); 429 cpm and 350 cpm (2% lysis reagent, 0.8 pmol cAMP/well). In addition, the “[125I]cAMP bound … per minute” value reads like this: (2% lysis reagent, 1.6 pmol cAMP/well) 339 cpm and 290 cpm; (2% lysis reagent, 3.2 pmol cAMP/well) 303 cpm and 252 cpm; (2% lysis reagent, 6.4 pmol cAMP/well) 215 cpm and 194 cpm; (2% lysis reagent, 12.8 pmol cAMP/well) 109 cpm and 115 cpm; (2% lysis reagent, NSB (no specific antisera)) 129 cpm and 130 cpm; (2% lysis reagent, Zero standard) 579 cpm and 510 cpm.

In the case of `CCCCCCCCCCCCOS(=O)(=O)[O-].[Na+]` [SDS, sodium dodecyl sulphate], the “[125I]cAMP bound … per minute” value (1% lysis reagent, 0.2 pmol cAMP/well, sulphate) was 1052 cpm and 1128 cpm; the “[125I]cAMP bound … per minute” value (1% lysis reagent, 0.4 pmol cAMP/well, sulphate) was 973 cpm and 1052 cpm; the “[125I]cAMP bound … per minute” value (1% lysis reagent, 0.8 pmol cAMP/well, sulphate) was 913 cpm and 973 cpm; the “[125I]cAMP bound … per minute” value (1% lysis reagent, 1.6 pmol cAMP/well, sulphate) was 859 cpm and 913 cpm; the “[125I]cAMP bound … per minute” value (1% lysis reagent, 3.2 pmol cAMP/well, sulphate) was 837 cpm and 859 cpm; the “[125I]cAMP bound … per minute” value under setting [1] stood at 640 cpm. For the same compound, the “[125I]cAMP bound … per minute” value is recorded as 394 cpm under setting [2], 118 cpm under setting [3] and 1149 cpm under setting [4].

Turning to `OC[C@H]1O[C@@H]2O[C@H]3[C@H](O)[C@@H](O)[C@@H](O[C@H]4[C@H](O)[C@@H](O)[C@@H](O[C@H]5[C@H](O)[C@@H](O)[C@@H](O[C@H]6[C@H](O)[C@@H](O)[C@@H](O[C@H]7[C@H](O)[C@@H](O)[C@@H](O[C@H]8[C@H](O)[C@@H](O)[C@@H](O[C@H]9[C@H](O)[C@@H](O)[C@@H](O[C@H]1[C@H](O)[C@H]2O)O[C@@H]9CO)O[C@@H]8CO)O[C@@H]7CO)O[C@@H]6CO)O[C@@H]5CO)O[C@@H]4CO)O[C@@H]3CO` [gamma cyclodextrin, gamma-cyclodextrin], the “restoration of antigen:antibody binding by different sequestrants” value is “restored binding to an optimal degree”.

For `OC[C@H]1O[C@@H]2O[C@H]3[C@H](O)[C@@H](O)[C@@H](O[C@H]4[C@H](O)[C@@H](O)[C@@H](O[C@H]5[C@H](O)[C@@H](O)[C@@H](O[C@H]6[C@H](O)[C@@H](O)[C@@H](O[C@H]7[C@H](O)[C@@H](O)[C@@H](O[C@H]8[C@H](O)[C@@H](O)[C@@H](O[C@H]1[C@H](O)[C@H]2O)O[C@@H]8CO)O[C@@H]7CO)O[C@@H]6CO)O[C@@H]5CO)O[C@@H]4CO)O[C@@H]3CO` [beta-cyclodextrin], the “restoration of antigen:antibody binding by different sequestrants” value is “less effective”.
